We go through 60 molecules from patent US11242555B2, “Molecular sensors and uses thereof” (New York University, priority 2018, dated 2022).

Where a name gives a salt, the structure may show the parent alone. Read-outs that look alike come from different tables or passages of the source.

The test system of assay [1] is double-stranded oligo probe (DNA). Kind of assay: High-throughput screen of a compound library with the linear oligo probe (FRET ratio, 384 well plate). Type of assay: binding. How it is done:
A library of compounds was mixed with the oligo probe in 384 well plate format. (A) The fluorescence spectra of the probe were recorded on a plate reader as in FIG. 21 and the FRET ratio (Cy5/Cy3 intensity) was calculated. […] (B) A library consisting of 1600 compounds from FDA and internationally approved drugs was screened to detect potential intercalators that can be drug repositioning targets.
The molecular sensors were used in vitro according to the following: 1) The sensors were diluted in a NaCl solution (e.g., in a 50-100 mM NaCl solution) and 0.2% BSA solution to a concentration of 1 μM. This can be adjusted depending on the sensitivity of the fluorescence measurement device. 2) The fluorescence spectrum was measured using a fluorescence spectrophotometer, a plate reader, or any other ad-hoc means. […] 3) The molecular species was added to be characterized for DNA binding properties or to be tested for intercalating or groove binding ability. The appropriate sensor is used (e.g., a linear or flexible molecular sensor). The fluorescence spectrum was measured again using the same methods and settings. 4) The FRET ratio was compared for both the sensor alone and sensor plus tested molecule. The FRET ratio is calculated by dividing the peak intensity of the acceptor fluorescence by that of the donor fluorescence.

Assay [2] relates to flexible molecular sensor (DNA). Briefly: Flexible (tongs-shaped) molecular sensor in solution, groove binders and polypeptides (FRET ratio). The assay is classed as binding. Particulars: for FRET ratio as a function of compound concentration: flexible sensor in solution; for FRET ratio as a function of drug concentration, with Mg / FRET ratio as a function of drug concentration, absence of Mg: flexible sensor; for FRET ratio as a function of drug concentration, with Mg: 20 mM MgCl added to solution; for FRET ratio as a function of drug concentration, absence of Mg: no Mg.

[3] abbreviates: linear oligo probe, 384 well plate, Cy5/Cy3 intensity, library peak ˜1.1, a small ratio indicates intercalation.

For the molecule `CC(C)NCC(O)COc1cccc2ccccc12.Cl` (racemic) [PROPRANOLOL HYDROCHLORIDE (+/−)], the FRET ratio in assay [1] (setting [3]) came to 0.9132.

`CN1[C@@H]2CC[C@H]1C[C@@H](OC(=O)c1c[nH]c3ccccc13)C2` [TROPISETRON HYDROCHLORIDE]: in assay [1] (setting [3]), the FRET ratio is listed as 0.7228.

Turning to Tri-lysine [Ly-3], the “FRET ratio as a function of compound concentration” value in assay [2] is on record as “increase the FRET ratio”.

For `CN1CCc2cccc3c2[C@H]1Cc1ccc(O)c(O)c1-3` [APOMORPHINE HYDROCHLORIDE], in assay [1] (setting [3]), the FRET ratio was 0.9228.

As to `CC(=O)c1ccc2c(c1)N(CCCN(C)C)c1ccccc1S2` [ACEPROMAZINE MALEATE], in assay [1] (setting [3]), the FRET ratio stood at 0.8037.

For the molecule MODALINE SULFATE, the FRET ratio in assay [1] is 0.1375.

On to `COc1ccc2nc3cc(Cl)ccc3c(Nc3cc(CN4CCCC4)c(O)c(CN4CCCC4)c3)c2n1.O=P(O)(O)O.O=P(O)(O)O.O=P(O)(O)O.O=P(O)(O)O` [PYRONARIDINE TETRAPHOSPHATE], for which the FRET ratio in assay [1] came to 0.3325.

On to `Nc1c2c(nc3ccccc13)CCCC2` [TACRINE HYDROCHLORIDE], for which the FRET ratio in assay [1] (setting [3]) worked out at 0.6067.

Take `N.N.[Cl][Pt][Cl]` [CISPLATIN]: the FRET ratio in assay [1] (setting [3]) is 0.6996.

For the molecule `CO/N=C1\CN(c2nc3c(cc2F)c(=O)c(C(=O)O)cn3C2CC2)CC1CN` (centres unmarked) [GEMIFLOXACIN MESYLATE], the FRET ratio in assay [1] (setting [3]) came to 0.9051.

`N=C(N)c1ccc(OCCCCCOc2ccc(C(=N)N)cc2)cc1` [Pentamidine]: the “FRET ratio as a function of compound concentration” value in assay [2] is “concentration-dependent increase of the FRET ratio”.

As to `Cc1nccc2c1[nH]c1cc(O)ccc12` [HARMOL HYDROCHLORIDE], in assay [1], the FRET ratio was found to be 0.3867.

As to `N=C(N)NC(=O)c1nc(Cl)c(N)nc1N` [AMILORIDE HYDROCHLORIDE], in assay [1] (setting [3]), the FRET ratio is 0.7057.

In the case of `CCCCCCc1ccc(O)cc1O.Nc1c2ccccc2nc2ccccc12` [ACRISORCIN], the FRET ratio in assay [1] stood at 0.2919.

Take `CCN(CC)CCCC(C)Nc1c2ccc(Cl)cc2nc2ccc(OC)cc12` (centres unmarked) [QUINACRINE HYDROCHLORIDE]: in assay [1] (setting [3]), the FRET ratio worked out at 0.2743.

With `Cc1c(-c2cnccn2)ssc1=S` [OLTIPRAZ], in assay [1] (setting [3]), the FRET ratio was 0.7447.

Turning to `CC(=O)Oc1cc2c(cc1OC(C)=O)[C@@H]1c3ccc(OC(C)=O)c(OC(C)=O)c3OC[C@]1(OC(C)=O)C2` [HAEMATOXYLIN PENTAACETATE], the FRET ratio in assay [1] amounted to 0.6134.

Consider `O=C1c2c(O)cccc2C([C@@H]2O[C@H](CO)[C@@H](O)[C@H](O)[C@H]2O)c2cc(CO)cc(O)c21` (some centres unmarked) [ALOIN], for which the FRET ratio in assay [1] (setting [3]) is recorded as 0.7719.

With Mitramycin, in assay [2], the “FRET ratio as a function of drug concentration, with Mg” value was “FRET ratio increases as a function of drug concentration” and the “FRET ratio as a function of drug concentration, absence of Mg” value is “no change in the FRET ratio”.

Turning to `N=C(N)c1ccc(-c2ccc(-c3ccc(C(=N)N)cc3)o2)cc1` [Fourmadine], the “FRET ratio as a function of compound concentration” value in assay [2] is “concentration-dependent increase of the FRET ratio”.

Consider `C=C[C@H]1C[N@@]2CC[C@H]1C[C@@H]2[C@@H](O)c1ccnc2ccc(OC)cc12` [QUINIDINE GLUCONATE], for which the FRET ratio in assay [1] (setting [3]) came to 0.9333.

Take `COc1cc2nc(N3CCN(C(=O)c4ccco4)CC3)nc(N)c2cc1OC` [PRAZOSIN HYDROCHLORIDE]: the FRET ratio in assay [1] (setting [3]) is 0.818.

With `COc1cc(NC(C)CCCN)c2ncccc2c1` (centres unmarked) [PRIMAQUINE PHOSPHATE], the FRET ratio in assay [1] (setting [3]) amounted to 0.8618.

For the molecule `COc1ccc2cc3[n+](cc2c1OC)CCc1cc2c(cc1-3)OCO2` [BERBERINE CHLORIDE], the FRET ratio in assay [1] (setting [3]) is 0.4262.

With `Cc1cc(N)c2ccccc2[n+]1CCCCCCCCCC[n+]1c(C)cc(N)c2ccccc21` [DEQUALINIUM CHLORIDE], the FRET ratio in assay [1] (setting [3]) turned out to be 0.6126.

On to `COc1cc2nc(N3CCN(C(=O)C4COc5ccccc5O4)CC3)nc(N)c2cc1OC` (centres unmarked) [DOXAZOSIN MESYLATE], for which the FRET ratio in assay [1] (setting [3]) is 0.8089.

Regarding `COc1cc2c(cc1OC)-c1cc3ccc(OC)c(OC)c3c[n+]1CC2` [PALMATINE CHLORIDE], the FRET ratio in assay [1] (setting [3]) is recorded as 0.5141.

Take LUPEOL ACETATE: in assay [1] (setting [3]), the FRET ratio came out at 0.38.

Take `CC[C@@]1(O)C[C@H](O)c2c(cc3c(c2O)C(=O)c2c(O)ccc(O)c2C3=O)[C@H]1C(=O)OC` [RUTILANTINONE]: in assay [1], the FRET ratio came to 0.6761.

As for `CC1=CC(=O)c2c(O)cccc2C1=O` [PLUMBAGIN], the FRET ratio in assay [1] (setting [3]) is given as 0.9364.

With `COc1cc2nc(N(C)CCCNC(=O)C3CCCO3)nc(N)c2cc1OC` (centres unmarked) [ALFUZOSIN HYDROCHLORIDE], the FRET ratio in assay [1] (setting [3]) amounted to 0.6784.

For the molecule `COc1c2occc2cc2ccc(=O)oc12` [METHOXSALEN], in assay [1] (setting [3]), the FRET ratio is 0.9338.

Consider `CCN(CC)CCNc1ccc(CO)c2sc3ccccc3c(=O)c12` [HYCANTHONE], for which the FRET ratio in assay [1] (setting [3]) is 0.4566.

As to `Cn1cc(NC(=O)c2cc(NC(=O)CN=C(N)N)cn2C)cc1C(=O)NCCC(=N)N` [Netrospin], the “FRET ratio as a function of compound concentration” value in assay [2] is given as “concentration-dependent increase of the FRET ratio”.

Turning to `CC[C@@H](CO)NC(=O)[C@@H]1C=C2c3cccc4c3c(cn4C)C[C@H]2N(C)C1` [METHYSERGIDE MALEATE], the FRET ratio in assay [1] was determined as 0.8993.

With `CC(=O)Oc1cccc2c1C(=O)c1c(OC(C)=O)cc(C(=O)O)cc1C2=O` [DIACERIN], the FRET ratio in assay [1] was determined as 0.7.

`CCN(CC)CCOc1ccc2c(c1)C(=O)c1cc(OCCN(CC)CC)ccc1-2` [TILORONE]: the FRET ratio in assay [1] (setting [3]) was determined as 0.443.

Consider `CC[C@H]1CN2CC[C@H]1C[C@@H]2[C@@H](O)c1ccnc2ccc(OC)cc12` [HYDROQUINIDINE], for which the FRET ratio in assay [1] (setting [3]) was 0.7512.

`COc1ccc2c(c1)[nH]c1c(C)nccc12` [HARMINE]: the FRET ratio in assay [1] is 0.754.

For `COc1ccc2c3c([nH]c2c1)C(C)=NCC3` [HARMALINE], the FRET ratio in assay [1] is reported as 0.646.

Take `O=c1n(Cl)c(=O)n(Cl)c(=O)n1Cl` [SYMCLOSENE]: the FRET ratio in assay [1] was 0.1489.

As for `CCN(CC)Cc1cc(Nc2ccnc3cc(Cl)ccc23)ccc1O` [AMODIAQUINE DIHYDROCHLORIDE], the FRET ratio in assay [1] (setting [3]) is listed as 0.8333.

In the case of `N=C(N)N/N=C/c1c(Cl)cccc1Cl` [GUANABENZ ACETATE], the FRET ratio in assay [1] (setting [3]) was 0.7731.

As for `NC(N)=NC(=O)c1nc(Cl)c(N2CCCCCC2)nc1N` [N,N-HEXAMETHYLENEAMILORIDE], the FRET ratio in assay [1] (setting [3]) is reported as 0.38.

As for `NC(CO)C(=O)NNCc1ccc(O)c(O)c1O` (centres unmarked) [BENSERAZIDE HYDROCHLORIDE], the FRET ratio in assay [1] (setting [3]) was found to be 0.7832.

`CC(C)(C#N)O[C@@H]1O[C@H](CO)[C@@H](O)[C@H](O)[C@H]1O` [LINAMARIN]: the FRET ratio in assay [1] was 0.4228.

`COc1c2occc2c(OC)c2c(=O)cc(C)oc12` [KHELLIN]: the FRET ratio in assay [1] (setting [3]) is listed as 0.7494.

With `CCOP(=S)(OCC)Oc1nc(Cl)c(Cl)cc1Cl` [CHLORPYRIFOS], in assay [1], the FRET ratio is given as 0.5126.

On to `c1ccc2c(CC3=NCCN3)cccc2c1` [NAPHAZOLINE HYDROCHLORIDE], for which the FRET ratio in assay [1] (setting [3]) is given as 0.8789.

In the case of `OCCN1CCN(CCCN2c3ccccc3Sc3ccc(Cl)cc32)CC1` [PERPHENAZINE], the FRET ratio in assay [1] (setting [3]) came to 0.9495.

On to `C[C@@H]1O[C@@H](O[C@H]2[C@H](Oc3cc(O)c4c(=O)cc(-c5ccc(O)cc5)oc4c3)O[C@H](CO)[C@@H](O)[C@@H]2O)[C@H](O)[C@H](O)[C@H]1O` [RHOIFOLIN], for which the FRET ratio in assay [1] (setting [3]) is on record as 0.6817.

For `N=C(N)N` [GUANIDINE HYDROCHLORIDE], in assay [1] (setting [3]), the FRET ratio came out at 0.451.

Turning to `Nc1c2ccccc2nc2ccccc12` [AMINACRINE], in assay [1] (setting [3]), the FRET ratio came out at 0.2941.

In the case of `COc1ccc(-c2cc(=O)c3ccccc3o2)cc1` [4′-METHOXYFLAVONE], the FRET ratio in assay [1] (setting [3]) was 0.543.

Consider `COc1cc(OC)c2c(=O)cc(-c3ccccc3)oc2c1` [CHRYSIN DIMETHYL ETHER], for which the FRET ratio in assay [1] (setting [3]) is listed as 0.8385.

For `CC(=O)[C@H]1CC[C@H]2[C@@H]3CCC4=CC(=O)CC[C@]4(C)[C@H]3CC[C@]12C` [PROGESTERONE], in assay [1] (setting [3]), the FRET ratio came to 0.9184.

Consider `COC1C(O)CC(OC2CC(Oc3cc4cc5c(c(O)c4c(O)c3C)C(=O)[C@@H](OC3CC(OC4CC(OC6CC(C)(O)C(OC(C)=O)C(C)O6)C(O)C(C)O4)C(O)C(C)O3)[C@H]([C@H](OC)C(=O)[C@@H](O)[C@@H](C)O)C5)OC(C)C2OC(C)=O)OC1C` (some centres unmarked) [Chromomycin], for which, in assay [2], the “FRET ratio as a function of drug concentration, with Mg” value is listed as “FRET ratio increases as a function of drug concentration” and the “FRET ratio as a function of drug concentration, absence of Mg” value is on record as “no change in the FRET ratio”.

`CCOc1cc(C=O)ccc1O` [ETHYL VANILLIN]: in assay [1] (setting [3]), the FRET ratio amounted to 0.9212.

For `CCCCC(CC)COC(=O)C(C#N)=C(c1ccccc1)c1ccccc1` (centres unmarked) [OCTOCRYLENE], the FRET ratio in assay [1] (setting [3]) is recorded as 0.9187.

As to `Cc1ccc(S(=O)(=O)[N-]Cl)cc1.[Na+]` [CHLORAMINE-T], the FRET ratio in assay [1] (setting [3]) came out at 0.3985.
